Results from ChEMBL document CHEMBL1152091, “The synthesis and identification of 4,6-diaminoquinoline derivatives as potent immunostimulants” (1992).

Test system: Mus musculus
Assay: Immunostimulant activity after subcutaneous administration using mouse protection assay
Assay type: functional
Conditions: sc, read-out: MED

Row | Compound | minimal effective dose [mg/kg]
1 | Nc1ccc2nc(-c3ccccc3)cc(NC3CCCCC3)c2c1 | > 100
2 | Nc1ccc2nc(-c3ccccc3)cc(Nc3ccc(F)c(F)c3)c2c1 | 6.25
3 | CC(=O)Nc1ccc2nc(C)cc(Nc3ccc(OCC4CCCCC4)cc3)c2c1 | 12.5
4 | Cc1cc(Nc2ccc(OCC3CCCCC3)cc2)c2cc(N)ccc2n1 | 6.25
5 | Nc1ccc2nccc(Nc3ccc(OCC4CCCCC4)cc3)c2c1 | 12.5
6 | Nc1ccc2nc(-c3ccccc3)cc(Nc3ccc(OCC4CCCCC4)cc3)c2c1 | 5.6
7 | Cc1cc(Nc2ccc(OCC3CCCCC3)cc2)c2cc(NC(N)=O)ccc2n1 | 50
8 | CCOc1ccc(Nc2ccnc3ccc(N)cc23)cc1 | 6.25
9 | Cc1cc(Nc2ccc(F)c(F)c2)c2cc(N)ccc2n1 | 12.5
10 | CC(=O)Nc1ccc2nccc(Nc3ccc(OCC4CCCCC4)cc3)c2c1 | 6.25
11 | CS(=O)(=O)Nc1ccc2nc(-c3ccccc3)cc(Nc3ccc(OCC4CCCCC4)cc3)c2c1 | 12.5
12 | O=[N+]([O-])c1ccc2nc(-c3ccccc3)cc(Nc3ccc(Cl)cc3)c2c1 | > 50
13 | Nc1ccc2nc(-c3ccccc3)cc(Nc3ccc(Cl)cc3)c2c1 | 5.6
14 | CCCCOc1ccc(Nc2ccnc3ccc(N)cc23)cc1 | 25
15 | O=[N+]([O-])c1ccc2nc(-c3ccccc3)cc(Nc3ccc(OCC4CCCCC4)cc3)c2c1 | > 50
16 | NC(=O)Nc1ccc2nc(-c3ccccc3)cc(Nc3ccc(OCC4CCCCC4)cc3)c2c1 | 6.25
